Laboratory results reported in patent publication US10426773B2, “Systems pharmacology for treating ocular disorders” (Case Western Reserve Univeristy, priority 2011, dated 2019).
Entries after “also recorded” stand apart in the source; their conditions may differ. Where two headings read alike, the source gives them in different places.

Legend:
[1] = test system: ROS generation in photoreceptors of Abca4−/−Rdh8−/− mice; assay: In vivo detection of ROS (DHE probe) in retinas of light-exposed Abca4−/−Rdh8−/− mice; parameters: species or system mouse; conditions: for ROS production in the ONL / photoreceptors (DHE signal): Example 1, pretreatment before light 10,000 lux 30 min, retinas 3 h after illumination; for ROS generation in photoreceptors (DHE signal): Example 3, DOX 10 mg/kg, GUB 2.0 mg/kg, SQ 0.5 mg/kg ip 30 min prior to light
Experimental: The ROS probe, DHE, at a dose of 20 mg/kg body weight was administered to Abca4^−/−Rdh8^−/− mice via intraperitoneal injection 30 min prior to light exposure. Eye cups obtained after removing the cornea, lens and vitreous body from enucleated eye globes 3 h post light illumination were fixed in 4% paraformaldehyde. Cryosections were prepared from fixed eye cups and cut at 12 am thickness for microscopic assessment of ROS signal fluorescence in the retina.
The ROS probe, DHE, at a dose of 20 mg/kg body weight in 25 μl of DMSO, was administered to Abca4^−/−Rdh8^−/− mice via intraperitoneal injection 1 h prior to light exposure. Eye cups obtained after removing the cornea, lens, and vitreous body from enucleated eye globes 3 h post light illumination were fixed in 4% paraformaldehyde. Cryosections were prepared from fixed eye cups and cut at 12-am thickness for microscopic assessment of ROS fluorescence in the retina with ImageJ software (National Institutes of Health).

Abca4−/−Rdh8−/− mice [2] = assay: Bright light-induced retinal degeneration in Abca4−/−Rdh8−/− mice, retinal histology and immunohistochemistry; assay type: in vivo, mouse; conditions: pretreatment before light 10,000 lux 30 min; 7-10 days after light exposure
Experimental: Retinal histology and immunohistochemistry (IHC) was performed as previously described. Briefly, eye cups free of cornea, lens and vitreous body were fixed in 2% glutaraldehyde/4% paraformaldehyde and processed for Epon embedding. Sections 1 am thick were cut and stained with toluidine blue for histological examination under a light microscope. IHC analysis was performed on 12 am thick cryosections prepared from 4% paraformaldehyde-fixed eye cups. Collected cryosections were subjected to examination for rhodopsin, PNA and DAPI expression.
Retinal immunohistochemistry (IHC) was carried out as previously described. Briefly, eyes were enucleated and eye cups were made to eliminate cornea, lens and vitreous body and fixed in 4% paraformaldehyde and processed for cryosectioning. 12 am thick cryosections were collected cryosections and subjected to examination for rhodopsin, peanut agglutinin lectin (PNA) and DAPI expression.
Retinal immunohistochemistry (IHC) was performed as previously described. Briefly, eyes were enucleated and, after removal of the cornea, lens and vitreous body, eye cups were fixed in 4% paraformaldehyde and processed for cryosectioning. Twelve μm thick cryosections were cut, collected and examined for rhodopsin expression, peanut agglutinin lectin (PNA) for cone sheath and nuclear DAPI staining. […]

Abca4−/−Rdh8−/− mice [3] = conditions: mouse, in vivo
ARPE19 cells [4] = assay: In vitro detection and quantification of intracellular ROS in ARPE19 cells (DCF-DA / DHE probes); assay type: cell-based, human; conditions: for intracellular ROS production: retinoid applied to cultured ARPE19 cells, ROS probe DCF-DA or DHE
Experimental: ARPE19 cells were cultured in Dulbecco's Modified Eagle's Medium (DMEM) (low glucose) supplemented with 10% fetal bovine serum. The ROS probes, 2′,7′-dichlorofluorescein diacetate (DCF-DA, Sigma, St. Louis, Mo.) or dihydroethidium (DHE, Invitrogen Corporation, Carlsbad, Calif.) were added after indicated pretreatments and incubated at 37° C. for 10-min before thorough washing in PBS and the ROS signals were subsequently observed at the same exposure setting under an inverted fluorescence microscope (Leica DMI 6000 B). Fluorescence quantification was performed with Metamorph imaging software (Molecular Devices, Downington, Pa.). Thresholds corresponding to fluorescent signals were set from the images and average fluorescence intensities were recorded for statistical analysis.

ARPE19 cells [5] = test system: ARPE19 cells
Abca4−/−Rdh8−/− mice [6] = assay: Bright light-induced retinal degeneration in Abca4−/−Rdh8−/− mice, OCT imaging of retinal structure; assay type: in vivo, mouse; conditions: for retinal / photoreceptor morphology by OCT imaging: pretreatment before light 10,000 lux 30 min, OCT 7 days after light exposure
Abca4−/−Rdh8−/− mice [7] = assay: Bright light-induced retinal degeneration in Abca4−/−Rdh8−/− mice, ERG retinal function; conditions: pretreatment before light 10,000 lux 30 min, ERG 7 days to 2 weeks after
Abca4−/−Rdh8−/− mice [8] = assay: Bright light-induced retinal degeneration in Abca4−/−Rdh8−/− mice, SLO autofluorescence imaging; assay type: in vivo, mouse; conditions: pretreatment before light 10,000 lux 30 min; SLO 8-9 days after light exposure
Experimental: SLO (Heidelberg Engineering, Heidelberg, Germany) was carried out for whole fundus imaging of mouse retinas. Mice were anesthetized by intraperitoneal injection of anesthetic cocktail indicated above, which was followed by pupil dilation using 1% tropicamide prior to SLO imaging under autofluorescence mode.
(§1) SLO (Heidelberg Engineering) was carried out for in vivo whole fundus imaging of mouse retinas. […] Numbers of autofluorescent spots were counted and subjected to statistical analyses as described below.
SLO (Heidelberg Engineering) was carried out for whole fundus imaging of mouse retinas in vivo. Mice were anesthetized, and their pupils were dilated as described above. SLO images were then acquired in the autofluorescence mode.

BALB/c mice [9] = assay: Light-induced retinal degeneration in BALB/c mice, retinal morphology (OCT, histology, IHC); assay type: in vivo, mouse; conditions: ip pretreatment 30 min before 10,000 lux, 7 days after light
BALB/c mice [10] = assay: Light-induced retinal degeneration in BALB/c mice, SLO autofluorescence imaging; assay type: in vivo, mouse; conditions: DOX 10, GUB 2.0, SQ 0.5 mg/kg, 7 days after light
Experimental: as §1
These drugs were administered to 4-week-old BALB/c mice by intraperitoneal injection 30 min prior to white light exposure at 10,000 lux for 1 h. Retinal morphology was assessed 7 days after light exposure by OCT imaging and histological examination.

[11] = Quantification of selected drugs in mouse serum and eye by LC-MS; assay type: in vivo, C57BL/6J WT mice; conditions: for Eye ± SD / concentration at 30 min: 30 min after a single ip dose: DOX 10, GUB 2, SQ 0.5 mg per kilogram; for Eye ± SD: mice perfused with PBS; for concentration at 30 min: C57BL/6J, mouse, serum, intraperitoneal, read-out: Serum ± SD; for amount in eye compared with level in 0.1 mL of serum: eye volume taken as about 0.1 mL
Experimental: C57BL/6J WT mice at 6 weeks of age (Jackson Laboratory) were treated with DOX, GUB, or SQ at a single dose of 10, 2, and 0.5 mg per kilogram, respectively. The compound was dissolved in 50% DMSO in PBS (137 mM NaCl, 2.7 mM KCl, 0.67 mM […]). Next, to precipitate excess proteins, 0.3 ml of methanol was added to both the eye homogenate and 0.1 ml of serum. Samples were vortexed for 30 s followed by centrifugation for 15 min at 16,000 g. Clear supernatants were collected and used directly for LC-MS analysis. 2HPO4/KH2PO4, pH 7.4) and administrated by intraperitoneal injection. Thirty minutes later the mice were anesthetized. Blood samples were collected using the technique of cardiac puncture and subsequently centrifuged (5 min, 16,000 g) to collect serum. Prior to harvesting eyes, mice were intracardially perfused with PBS to minimalize blood contamination. Eye balls were immediately homogenized in 0.1 ml of PBS. The homogenate and serum samples were spiked with 100 pmols of internal standard (IS) (parazosin—2-[4-(2-furoyl)piperazin-1-yl]-6,7-dimethoxyquinazolin-4-amine (Sigma Aldrich) or clenbuterol—(RS)-1-(4-Amino-3,5-dichlorophenyl)-2-(tert-butylamino)ethanol (Sigma Aldrich)) for DOX, GUB or SQ quantification, respectively.
Mass spectrometry (MS) based detection and quantification of DOX, GUB, and SQ was performed with a L×Q linear ion trap mass spectrometer (Thermo Scientific) equipped with an electrospray ionization (ESI) interface and coupled to Agilent 1100 HPLC (Agilent Technologies). Separation of drugs and the internal standards was achieved on a reverse phase C18 Phenomenex HPLC column (250×4.60 mm; 5 μm) by a linear gradient of to 100% acetonitrile in water within 15 min at flow rate of 0.5 ml/min. All solvents contained 0.1% formic acid (v/v). The HPLC effluent was sprayed into the MS via an ESI probe operated in the positive ionization mode. Parameters of ionization and detection were tuned with synthetic standards for the drugs to achieve the highest possible sensitivity. Dox and parazosin (internal standard) were detected by selected reaction monitoring (SRM) using m/z 452.2→344.2 and 384.2→247.1 transitions whereas GUB, SQ and their corresponding IS, clenbuterol, was by fragmentation at m/z 231.1→214.0, 206.1→136.0, and 277.1→259.1, respectively. The elution times for DOX, GUB, and SQ were ˜12.8, 12.3, and 10.8 min, respectively. Both internal standards eluted at 12.0 min (FIG. 34). Calibration curves were calculated based on the linear relationship between ratios of SRM ion intensity peak area corresponding to the selected drug and the IS vs. molar ratios of the compounds in the range of 20-500 pmol (FIG. 34H).

[12] = test system: visual pigment regeneration; assay: Effect on chromophore regeneration (ERG responses and 11-cis-retinal levels after bleaching); assay type: in vivo; conditions: SQ treatment
From the text: It is also worth noting that rhodopsin could be a central player in light-induced retinal degeneration, and that reduced amounts of rhodopsin protect the retina from light-induced degeneration. Therefore we examined the potential impact of the AC inhibitor SQ on chromophore regeneration given that AC is the central player in our newly identified GPCR signaling implicated in light-induced retinopathy (FIG. 1). […] Therefore, the possibility of an acute effect of pharmacological compounds on phototransduction could be ruled out.

[13] = retinoid alone, at the doses examined

NCCOB(c1ccccc1)c1ccccc1 [2-APB, 2-aminoethoxydiphenyl borate]
ROS production in the ONL / photoreceptors (DHE signal) [1]: reduced ROS production
retinal histology / immunohistochemistry (rhodopsin, PNA, DAPI; ONL) (Abca4−/−Rdh8−/− mice [2]): significantly preserved retinal morphology
retinal function by ERG (a-wave and b-wave amplitudes) (Abca4−/−Rdh8−/− mice [3]): protective effect

CC1=C(/C=C/C(C)=C/C=C/C(C)=C/c2cc(/C=C/C=C(C)/C=C/C3=C(C)CCCC3(C)C)cc[n+]2CCO)C(C)(C)CCC1 [A2E, di-retinoid-pyridinium-ethanolamine]
intracellular ROS production (ARPE19 cells [4]): did not induce overproduction of intracellular ROS
cell death (ARPE19 cells [5]; [13]): neither atROL, atRA nor A2E induced cell death

COc1cc(C(C)=O)ccc1O [APO, Apocynin]
atRAL-induced intracellular ROS generation (ARPE19 cells [4]; APO applied to ARPE19 cells together with atRAL): inhibited atRAL-induced intracellular ROS generation
ROS production in the ONL / photoreceptors (DHE signal) [1]: substantially decreased ROS production
retinal / photoreceptor morphology by OCT imaging (Abca4−/−Rdh8−/− mice [6]): well-preserved retinal morphology
retinal histology / immunohistochemistry (rhodopsin, PNA, DAPI; ONL) (Abca4−/−Rdh8−/− mice [2]): nearly intact retinal morphology
ARPE19 cell survival (ARPE19 cells [5]; APO together with atRAL): improved ARPE19 cell survival
retinal function by ERG (a-wave and b-wave amplitudes) (Abca4−/−Rdh8−/− mice [7]): protective effect

N=C(N)N/N=C/c1c(Cl)cccc1Cl [Guanbenz]
ROS generation in photoreceptors (DHE signal) [1]: decreased
retinal / photoreceptor morphology by OCT imaging (Abca4−/−Rdh8−/− mice [6]; listed as GUB): significantly prevented; also recorded: dose-dependent fashion
half maximal effective (protective) dose (Abca4−/−Rdh8−/− mice [6]; protection from bright light-induced degeneration, dose-response, FIG. 25A/B): 0.3 mg/kg
retinal histology / immunohistochemistry (rhodopsin, PNA, DAPI; ONL) (Abca4−/−Rdh8−/− mice [2]): substantially preserved photoreceptor morphology
retinal autofluorescence spots by SLO imaging (Abca4−/−Rdh8−/− mice [8]): markedly less autofluorescence spots
retinal morphology / ONL (OCT, histology) (BALB/c mice [9]): retinal morphology of drug-treated mice was maintained
autofluorescent spots by SLO (BALB/c mice [10]): prevented
Eye ± SD [11]: 13.1 ± 4.7 pmol/eye
concentration at 30 min [11]: 70 ± 18 nM
amount in eye compared with level in 0.1 mL of serum ([11]; listed as GUB): comparable

Nc1ncnc2c1ncn2C1CCCO1 (stereo not drawn) [SQ 22536]
ROS generation in photoreceptors (DHE signal) [1]: decreased
retinal / photoreceptor morphology by OCT imaging (Abca4−/−Rdh8−/− mice [6]): protected retinas from light-induced degeneration in a dose-dependent manner
retinal histology / immunohistochemistry (rhodopsin, PNA, DAPI; ONL) (Abca4−/−Rdh8−/− mice [2]): substantially preserved photoreceptor morphology
retinal autofluorescence spots by SLO imaging (Abca4−/−Rdh8−/− mice [8]): dose-dependent effect
retinal morphology / ONL (OCT, histology) (BALB/c mice [9]): retinal morphology of drug-treated mice was maintained
autofluorescent spots by SLO (BALB/c mice [10]): prevented
Eye ± SD [11]: 5.6 ± 2.2 pmol/eye
concentration at 30 min [11]: 193 ± 55 nM
amount in eye compared with level in 0.1 mL of serum [11]: 5 times lower
ERG responses and 11-cis-retinal levels after bleaching [12]: no significant changes
retinal function by ERG (a-wave and b-wave amplitudes) (Abca4−/−Rdh8−/− mice [7]; listed as SQ): substantial preservation of the scotopic ERG response; also recorded: substantial preservation of this response

CC1=C(/C=C/C(C)=C/C=C/C(C)=C/C(=O)O)C(C)(C)CCC1 [atRA, all-trans-retinoic acid]
intracellular ROS production (ARPE19 cells [4]): did not induce overproduction of intracellular ROS
cell death (ARPE19 cells [5]; human, 24 h): neither atROL, atRA nor A2E induced cell death

CC1=C(/C=C/C(C)=C/C=C/C(C)=C/CO)C(C)(C)CCC1 [atROL, all-trans-retinol]
intracellular ROS production (ARPE19 cells [4]): did not induce overproduction of intracellular ROS
cell death (ARPE19 cells [5]; [13]): neither atROL, atRA nor A2E induced cell death
